US6838453B2, “Antagonist derivatives of the vitronectin receptor” (Aventis Pharma S.A., priority 2000, dated 2005)
Structures can show the parent of a compound that is named as a salt.

These molecules were tested against human αvβ3 receptor (Homo sapiens, UniProt P05106+P06756) (assay: Kistrin/Vitronectin Receptor (αvβ3) ELISA test). Details: Kistrin-coated plates, co-incubated 3 hours at ambient temperature, 4B12-HRP antibody, OD 450 nm, read-out: K/VnR IC50.
Assay type: binding
Method: Kistrin/Vitronectin Receptor (αvβ3) ELISA Test
96-well MaxiSorp planes are coated overnight at […] with 100 μl of Kistrin at 1 μg/ml (dilution in a coating buffer: carbonate 0.05 M/NaOH pH 9.6). The next day, the wells are emptied and the ligands (kistrin) are then fixed (fixing buffers: PBS containing 0.5% BSA (pH=7.4)) for 1 hour at ambient temperature with gentle agitation at 125 rpm. The wells are washed six times (washing buffer: PBS containing 0.05% of Tween 20 (pH 7.7) then the following are added per well and in this order: • 40 μl of incubation buffer • 10 μl of the dilution of the product to be tested (the products are diluted in a 50:50 mixture DMSO/Water) • 50 μl of human αvβ3 receptor (cf Pytella et al. Methods Enzymol. (1987) 144 (Dilution in incubation buffer, to be adapted according to the receptor batch and according to the ligand). The ligand, the αvβ3 receptor and the products to be studied are co-incubated for 3 hours at ambient temperature with gentle agitation at 125 rpm.
The wells are again washed six times, then incubated for 2 hours at ambient temperature with gentle agitation at 125 rpm, in the presence of 100 μl of anti-receptor antibody conjugated to a peroxidase (The 4B12-HRP antibody is diluted in an incubation buffer (50 mM TRIS pH 7.4; 0.5% BSA; 0.05% Tween 20; 1 mM MnCl2; 50 μM CaCl2; 50 μM MgCl2; 100 mM NaCl) The dilution is adapted according to the receptor batch.
The wells are then washed six times before measuring the ligand-receptor bond carried out using a peroxidase developer kit (TBM Microwell Peroxidase Substrate System Kirkegaard; Cat. Ref. 50-76-00).
This kit contains a bottle A of substrate (3,3′,5,5′-tetramethylebenzidine at 0.4 g/l) and a bottle B (H2O2 at 0.02% in a Citrate/Citric acid buffer). Extemporaneously, a volume of A is mixed with a volume of B, then the reaction mixture is distributed at a rate of 100 μl/well.
The enzymatic reaction develops between 6 and 10 minutes for Kistrin/αvβ3 then its evolution is stopped by the addition of 100 μl of 1M phosphoric acid. The optical density is determined at 450 nm.
Expression of the Results
The following curve is plotted: the bond percentage as a function of the logarithm of each concentration of the tested product.
For each product, the IC50 is determined according to the following formula: IC50=(B0+Bmin)/2 • B0=Maximum bond in the absence of any product • Bmin =Minimum bond in the presence of the highest concentration of the product.

Sequence of human αvβ3 receptor (P06756 31-889 limits assumed): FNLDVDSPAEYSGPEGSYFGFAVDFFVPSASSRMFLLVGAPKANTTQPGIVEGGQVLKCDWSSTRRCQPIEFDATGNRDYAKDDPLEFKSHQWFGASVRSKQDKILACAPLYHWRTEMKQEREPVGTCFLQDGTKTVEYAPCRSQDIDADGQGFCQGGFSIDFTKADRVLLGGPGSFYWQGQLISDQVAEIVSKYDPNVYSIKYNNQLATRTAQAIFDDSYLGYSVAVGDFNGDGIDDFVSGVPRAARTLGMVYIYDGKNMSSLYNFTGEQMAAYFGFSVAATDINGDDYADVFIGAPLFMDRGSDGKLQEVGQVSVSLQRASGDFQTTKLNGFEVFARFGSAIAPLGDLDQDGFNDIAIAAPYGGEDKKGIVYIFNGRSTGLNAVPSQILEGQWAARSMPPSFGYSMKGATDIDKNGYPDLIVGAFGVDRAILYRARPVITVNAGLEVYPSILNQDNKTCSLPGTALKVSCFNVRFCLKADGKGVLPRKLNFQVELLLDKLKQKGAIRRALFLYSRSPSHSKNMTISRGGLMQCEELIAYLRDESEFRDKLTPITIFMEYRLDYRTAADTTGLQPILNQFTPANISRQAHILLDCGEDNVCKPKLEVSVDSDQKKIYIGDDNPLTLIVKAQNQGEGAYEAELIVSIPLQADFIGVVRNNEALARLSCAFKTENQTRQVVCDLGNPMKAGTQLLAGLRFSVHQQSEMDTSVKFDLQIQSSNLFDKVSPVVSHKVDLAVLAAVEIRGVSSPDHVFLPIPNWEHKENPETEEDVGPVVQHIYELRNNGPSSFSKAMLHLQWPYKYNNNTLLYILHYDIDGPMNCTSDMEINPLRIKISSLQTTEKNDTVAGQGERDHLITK
Sequence of human αvβ3 receptor (P06756 891-1048 limits assumed): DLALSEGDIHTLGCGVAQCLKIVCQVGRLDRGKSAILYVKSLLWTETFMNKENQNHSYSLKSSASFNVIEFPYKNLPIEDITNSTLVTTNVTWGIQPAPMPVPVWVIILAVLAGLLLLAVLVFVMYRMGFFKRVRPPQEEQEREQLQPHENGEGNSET
Sequence of human αvβ3 receptor (P05106 27-788): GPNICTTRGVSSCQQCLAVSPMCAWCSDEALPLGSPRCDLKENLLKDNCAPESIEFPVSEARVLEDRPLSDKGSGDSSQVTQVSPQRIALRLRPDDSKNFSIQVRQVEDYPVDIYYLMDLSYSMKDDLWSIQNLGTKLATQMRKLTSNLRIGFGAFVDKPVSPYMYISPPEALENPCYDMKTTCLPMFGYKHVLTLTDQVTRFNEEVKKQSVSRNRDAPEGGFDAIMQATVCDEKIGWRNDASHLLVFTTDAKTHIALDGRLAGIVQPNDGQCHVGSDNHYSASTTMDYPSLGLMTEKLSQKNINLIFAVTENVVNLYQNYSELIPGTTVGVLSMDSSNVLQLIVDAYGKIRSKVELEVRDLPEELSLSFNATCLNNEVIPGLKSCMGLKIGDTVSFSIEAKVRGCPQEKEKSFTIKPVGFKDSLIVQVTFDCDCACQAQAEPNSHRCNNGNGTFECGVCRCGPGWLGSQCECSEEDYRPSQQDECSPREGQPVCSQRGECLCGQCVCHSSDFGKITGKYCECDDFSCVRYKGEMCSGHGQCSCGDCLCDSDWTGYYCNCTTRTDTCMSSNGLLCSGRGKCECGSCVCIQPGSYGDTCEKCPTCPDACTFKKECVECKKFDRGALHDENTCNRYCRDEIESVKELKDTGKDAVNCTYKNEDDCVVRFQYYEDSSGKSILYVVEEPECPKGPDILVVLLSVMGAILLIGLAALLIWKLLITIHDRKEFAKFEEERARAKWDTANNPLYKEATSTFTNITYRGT

`O=C(CCCOc1ccc(C[C@H](Nc2nc3cccc(Br)c3s2)C(=O)O)cc1)NC1=NCCCN1` [Example 33, N-(7-bromo-2-benzothiazolyl)-O-[4-oxo-4-[(1,4,5,6-tetrahydro-2-pyrimidinyl)amino]butyl]-L-tyrosine] and `O=C(CCCOc1ccc(C[C@H](Nc2nc3ccccc3s2)C(=O)O)cc1)NC1=NCCCN1` [Example 7, N-(2-benzothiazolyl)-O-[4-oxo-4-[(1,4,5,6-tetrahydro-2-pyrimidinyl)amino]butyl]-L-tyrosine] are within 1.5-fold of each other in IC50: 7 nM for the first, 6 nM for the second.

First: O=C(CCCOc1ccc(C[C@H](Nc2nc3cc4ccccc4cc3o2)C(=O)O)cc1)NC1=NCCCN1 [Example 19, N-(naphth[2,3-d]oxazol-2-yl)-O-[4-oxo-4-[(1,4,5,6-tetrahydro-2-pyrimidinyl)amino]butyl]-L-tyrosine]
Second: O=C(CCCOc1ccc(C[C@H](Nc2nc3c(ccc4ccccc43)o2)C(=O)O)cc1)NC1=NCCCN1 [Example 20, N-(naphth[1,2-d]oxazol-2-yl)-O-[4-oxo-4-[(1,4,5,6-tetrahydro-2-pyrimidinyl)amino]butyl]-L-tyrosine]
The IC50 of the first is 5.8-fold lower: 6 nM for the first, 35 nM for the second.

`CN(c1ccccc1)S(=O)(=O)c1ccc2oc(N[C@@H](Cc3ccc(OCCCC(=O)NC4=NCCCN4)cc3)C(=O)O)nc2c1` [Example 31, N-[5-[(N-methylphenylamino)sulphonyl]-2-benzoxazolyl]-O-[4-oxo-4-[(1,4,5,6-tetrahydro-2-pyrimidinyl)amino]butyl]-L-tyrosine] and `O=C(CCCOc1ccc(C[C@H](Nc2nc3cc(S(=O)(=O)Nc4ccccc4)ccc3o2)C(=O)O)cc1)NC1=NCCCN1` [Example 30, N-[5-[(phenylamino)sulphonyl]-2-benzoxazolyl]-O-[4-oxo-4-[(1,4,5,6-tetrahydro-2-pyrimidinyl)amino]butyl]-L-tyrosine] are within 1.5-fold of each other in IC50: 5 nM for the first, 7 nM for the second.

`O=C(CCCOc1ccc(C[C@H](Nc2nc3cc(Cl)cc(Cl)c3o2)C(=O)O)cc1)NC1=NCCCN1` [Example 28, N-(5,7-dichloro-2-benzoxazolyl)-O-[4-oxo-4-[(1,4,5,6-tetrahydro-2-pyrimidinyl)amino]butyl]-L-tyrosine] and `Cc1c(Cl)cc2nc(N[C@@H](Cc3ccc(OCCCC(=O)NC4=NCCCN4)cc3)C(=O)O)oc2c1Cl` [Example 29, N-(5,7-dichloro-6-methyl-2-benzoxazolyl)-O-[4-oxo-4-[(1,4,5,6-tetrahydro-2-pyrimidinyl)amino]butyl]-L-tyrosine] are within 1.5-fold of each other in IC50: 7 nM for the first, 10 nM for the second.

First: O=C(O)[C@H](Cc1ccc(OCCCc2ccc3c(n2)NCCC3)cc1)Nc1nnnn1Cc1ccccc1 [Example 1, N-[1-(phenylmethyl)-1H-tetrazol-5-yl]-O-[3-(5,6,7,8-tetrahydro-1,8-naphthyridin-2-yl)propyl]-L-tyrosine]
Second: O=C(O)[C@H](Cc1ccc(OCCCc2ccc3c(n2)NCCC3)cc1)Nc1nc2ccccc2o1 [Example 3, N-(2-benzoxazolyl)-O-[3-(5,6,7,8-tetrahydro-1,8-naphthyridin-2-yl)propyl]-L-tyrosine]
The IC50 of the first is 5.6-fold lower: 9 nM for the first, 50 nM for the second. The first is the more potent here.

`O=C(CCCOc1ccc(C[C@H](Nc2nc3ccc(F)c(F)c3o2)C(=O)O)cc1)NC1=NCCCN1` [Example 27, N-(6,7-difluoro-2-benzoxazolyl)-O-[4-oxo-4-[(1,4,5,6-tetrahydro-2-pyrimidinyl)amino]butyl]-L-tyrosine] and `O=C(CCCOc1ccc(C[C@H](Nc2nc3cc(Br)cc(F)c3o2)C(=O)O)cc1)NC1=NCCCN1` [Example 9, N-[5-bromo-7-fluoro-2-benzoxazolyl)-O-[4-oxo-4-[(1,4,5,6-tetrahydro-2-pyrimidinyl)amino]butyl]-L-tyrosine] are within 1.5-fold of each other in IC50: 12 nM for the first, 9 nM for the second.

First: O=C(CCCOc1ccc(C[C@H](Nc2nc3cc(-c4ccccc4)ccc3o2)C(=O)O)cc1)NC1=NCCCN1 [Example 21, O-[4-oxo-4-[(1,4,5,6-tetrahydro-2-pyrimidinyl)amino]butyl]-N-(5-phenyl-2-benzoxazolyl)-L-tyrosine]
Second: O=C(CCCOc1ccc(C[C@H](Nc2nc3cc(Cl)ccc3o2)C(=O)O)cc1)NC1=NCCCN1 [Example 17, N-(5-chloro-2-benzoxazolyl)-O-[4-oxo-4-[(1,4,5,6-tetrahydro-2-pyrimidinyl)amino]butyl]-L-tyrosine]
The IC50 of the first is 1.5-fold lower: 6 nM for the first, 9 nM for the second. The first is the more potent here.

`O=C(CCc1ccc(C(=O)NC[C@H](Nc2nc3ccc(Br)cc3s2)C(=O)O)cc1)NC1=NCCCN1` [Example 11, N-(6-bromo-2-benzothiazolyl)-3-[[4-[3-oxo-3-[(1,4,5,6-tetrahydro-2-pyrimidinyl)amino]propyl]benzoyl]amino]-L-alanine] and `O=C(CCc1ccc(C(=O)NC[C@H](Nc2nc3cc(Br)ccc3o2)C(=O)O)cc1)NC1=NCCCN1` [Example 10, N-(5-bromo-2-benzoxazolyl)-3-[[4-[3-oxo-3-[(1,4,5,6-tetrahydro-2-pyrimidinyl)amino]propyl]benzoyl]amino]-L-alanine] are within 1.5-fold of each other in IC50: 7 nM for the first, 6 nM for the second.

`COc1ccc2[nH]c(N[C@@H](Cc3ccc(OCCCC(=O)NC4=NCCCN4)cc3)C(=O)O)nc2c1` [Example 4a] and `Cc1ccc2[nH]c(N[C@@H](Cc3ccc(OCCCC(=O)NC4=NCCCN4)cc3)C(=O)O)nc2c1` [Example 4b, N-[5-methyl-1H-benzimidazol-2-yl]-O-[4-oxo-4-[(1,4,5,6-tetrahydro-2-pyrimidinyl)amino]butyl]-L-tyrosine] are within 1.5-fold of each other in IC50: 19 nM for the first, 14 nM for the second.

`O=C(CCCOc1ccc(C[C@H](Nc2nc3cc(C(F)(F)F)ccc3o2)C(=O)O)cc1)NC1=NCCCN1` [Example 23, O-[4-oxo-4-[(1,4,5,6-tetrahydro-2-pyrimidinyl)amino]butyl]-N-[5-(trifluoromethyl)-2-benzoxazolyl)-L-tyrosine] and `O=C(CCCOc1ccc(C[C@H](Nc2nc3cc(Br)ccc3o2)C(=O)O)cc1)NC1=NCCCN1` [Example 18, N-(5-bromo-2-benzoxazolyl)-O-[4-oxo-4-[(1,4,5,6-tetrahydro-2-pyrimidinyl)amino]butyl]-L-tyrosine trifluoroacetate] are within 1.5-fold of each other in IC50: 10 nM for the first, 11 nM for the second.

Compared with `O=C(CCCOc1ccc(C[C@H](Nc2nc3cccc(Cl)c3o2)C(=O)O)cc1)NC1=NCCCN1` [Example 15, N-(7-chloro-2-benzoxazolyl)-O-[4-oxo-4-[(1,4,5,6-tetrahydro-2-pyrimidinyl)amino]butyl]-L-tyrosine trifluoroacetate], `O=C(CCCOc1ccc(C[C@H](Nc2nc3ccc(Cl)cc3o2)C(=O)O)cc1)NC1=NCCCN1` [Example 16, N-(6-chloro-2-benzoxazolyl)-O-[4-oxo-4-[(1,4,5,6-tetrahydro-2-pyrimidinyl)amino]butyl]-L-tyrosine] is 1.8-fold higher in IC50: 5 nM for the first, 9 nM for the second.

Compared with `O=C(CCCOc1ccc(C[C@H](Nc2nc3cc(Br)ccc3s2)C(=O)O)cc1)NC1=NCCCN1` [Example 34, N-(5-bromo-2-benzothiazolyl)-O-[4-oxo-4-[(1,4,5,6-tetrahydro-2-pyrimidinyl)amino]butyl]-L-tyrosine], `O=C(CCCOc1ccc(C[C@H](Nc2nc3ccc(Br)cc3s2)C(=O)O)cc1)NC1=NCCCN1` [Example 8, N-(6-bromo-2-benzothiazolyl)-O-[4-oxo-4-[(1,4,5,6-tetrahydro-2-pyrimidinyl)amino]butyl]-L-tyrosine] is 2.2-fold lower in IC50: 18 nM for the first, 8 nM for the second.

First: O=C(CCCOc1ccc(C[C@H](Nc2nnnn2Cc2ccccc2)C(=O)O)cc1)NC1=NCCCN1 [Example 5, O-[4-oxo-4-[(1,4,5,6-tetrahydro-2-pyrimidinyl)amino]butyl]-N-[1-(phenylmethyl)-1H-tetrazol-5-yl]-L-tyrosine]
Second: O=C(CCCOc1ccc(C[C@H](Nc2nc3ccc(Cl)cc3s2)C(=O)O)cc1)NC1=NCCCN1 [Example 32, N-(6-chloro-2-benzothiazolyl)-O-[4-oxo-4-[(1,4,5,6-tetrahydro-2-pyrimidinyl)amino]butyl]-L-tyrosine]
The IC50 of the first is 1.5-fold higher: 15 nM for the first, 10 nM for the second. The second is the more potent here.

Compared with `O=C(O)[C@H](Cc1ccc(OCCCc2ccc3c(n2)NCCC3)cc1)Nc1nc2ccccc2s1` [Example 2, N-(2-benzothiazolyl)-O-[3-(5,6,7,8-tetrahydro-1,8-naphthyridin-2-yl)propyl]-L-tyrosine], `O=C(CCCOc1ccc(C[C@H](Nc2nc3ccc([N+](=O)[O-])cc3o2)C(=O)O)cc1)NC1=NCCCN1` [Example 22, N-(6-nitro-2-benzoxazolyl)-O-[4-oxo-4-[(1,4,5,6-tetrahydro-2-pyrimidinyl)amino]butyl]-L-tyrosine] is 8.8-fold lower in IC50: 70 nM for the first, 8 nM for the second.
